Assay results from patent US20060251574A1, “Cytotoxins and diagnostic imaging agents comprising hsp90 ligands” (priority 2002, published 2006).

System: HSP90
Protocol: Purified native HSP90 protein (Stressgen) or cell lysates prepared in lysis buffer (20 mM Hepes, pH 7.3, 1 mM EDTA, 5 mM MgCl2, 100 mM KCl) were incubated in the absence or presence of CF7 (17-AAG) or test compound for 15 min at 4° C. […] BioMag™ streptavidin magnetic beads were then added to the mixture, and the reaction was incubated by rotating for another 1 hr at 4° C. Tubes were placed on a magnetic rack, and the unbound supernatant removed. The magnetic beads were washed three times in lysis buffer, and the washes discarded. SDS-PAGE sample buffer was added to the beads and boiled for 5 min at 95° C. Samples were analyzed on 10% SDS protein gels (Novex), and then Western blots using anti-HSP90 monoclonal antibody (Stressgen SPA-830). The bands in the Western Blots were quantitated using the Bio-rad Fluor-S Imager, and the % inhibition of binding of CF7 or test compound calculated. The IC50 reported is the concentration of the compound needed to cause half-maximal inhibition of binding. For experiments that utilized shocked HSP90, the purified HSP90 native protein was incubated for 15 min at 90° C. For experiments that utilized bis-ANS treated HSP90, the purified HSP90 protein was incubated with bis-ANS (Molecular Probes) for 30 min at 37° C.

17-allylamino-geldanamycin [17-AAG] was tested, and the “apparent binding affinity for HSP90, tumor cells versus normal cells or purified HSP90 (FIG. 4)” value (BT474 lysate vs fibroblasts, RPTEC, purified HSP90) was “higher apparent binding affinity for HSP90 from tumor cells (BT474) than normal cells (fibroblasts, RPTEC) or purified HSP90 alone” and the “apparent binding affinity for HSP90, high Her2 expressing cells versus normal cells, heat-shocked or bis-ANS treated HSP90 (FIG. 5)” value (SKOY-3, SKBR-3, N87 lysates) was “higher apparent binding affinity for HSP90 from the specific high Her2 expressing cells, SKOY-3, SKBR-3, and N87, than from normal cells, heat-shocked HSP90, or bis-ANS treated HSP90”.
